Results: patent US10627412B2, “Periodontal-disease-specific peptide, and treatment and diagnosis of periodontal disease using same” (KAGOSHIMA UNIVERSITY, priority 2010, dated 2020)

B1: Full-length human Keratin 6: full-length human Keratin 6 protein, parental protein of peptide 1 (protein, UniProt P02538 1-564, looked up)
chain: MASTSTTIRSHSSSRRGFSANSARLPGVSRSGFSSVSVSRSRGSGGLGGACGGAGFGSRSLYGLGGSKRISIGGGSCAISGGYGSRAGGSYGFGGAGSGFGFGGGAGIGFGLGGGAGLAGGFGGPGFPVCPPGGIQEVTVNQSLLTPLNLQIDPTIQRVRAEEREQIKTLNNKFASFIDKVRFLEQQNKVLETKWTLLQEQGTKTVRQNLEPLFEQYINNLRRQLDSIVGERGRLDSELRGMQDLVEDFKNKYEDEINKRTAAENEFVTLKKDVDAAYMNKVELQAKADTLTDEINFLRALYDAELSQMQTHISDTSVVLSMDNNRNLDLDSIIAEVKAQYEEIAQRSRAEAESWYQTKYEELQVTAGRHGDDLRNTKQEIAEINRMIQRLRSEIDHVKKQCANLQAAIADAEQRGEMALKDAKNKLEGLEDALQKAKQDLARLLKEYQELMNVKLALDVEIATYRKLLEGEECRLNGEGVGQVNISVVQSTVSSGYGGASGVGSGLGLGGGSSYSYGSGLGVGGGFSSSSGRAIGGGLSSVGGGSSTIKYTTTSSSSRKSYKH
modifications: full-length

How the values were obtained:
[1] = tested on: Lymphocytes obtained from periodontitis patients and healthy subjects (T cell proliferation); experiment: Drug-induced lymphocyte stimulation test (DLST); type: cell-based, human; conditions: for T cell proliferation induction potency in DLST: periodontitis patients as compared to healthy subjects
From the text: Lymphocytes obtained from periodontitis patients and healthy subjects were subjected to a drug-induced lymphocyte stimulation test (DLST) using full-length human Keratin 6 and peptide 1 (fragment thereof) (periodontitis patients: N=22, healthy subjects: N=5).

RANKL in lymphocytes = experiment: RANKL expression in stimulated lymphocytes, Western blot with anti RANKL antibody; type: cell-based, human
Protocol: Blood samples were collected from progressive (untreated) periodontitis patients, periodontitis patients during treatment and periodontitis patients after treatment to obtain lymphocytes, stimulated with full-length human Keratin 6 (K6; 2 or 4 μg/ml) or peptide 1 (K6F; 60 or 30 μg/ml), expression of RANKL in lymphocytes was examined by Western blot analysis using anti RANKL antibody. […] Fluorescent staining was performed to examine induction of lymphoblast formation by the stimulation with full-length human Keratin 6 or peptide 1. As a result, it was correlated well with the expression of RANKL mRNA (FIG. 8C).

[2] = tested on: RANKL mRNA in lymphocytes; experiment: RT-PCR of RANKL mRNA in lymphocytes of periodontitis patients; type: cell-based, human; conditions: stimulation of lymphocytes of periodontitis patients
[3] = tested on: Peripheral blood monocytes derived from severe periodontitis patients; experiment: Immunostaining of peripheral blood monocytes with anti-RANKL and anti-CD3 antibody; type: cell-based, human; conditions: stimulation of cells from severe periodontitis patients
From the text: Peripheral blood monocytes derived from severe periodontitis patients were stimulated with full-length human Keratin 6 (FL) or peptide 1 (K6F), and immunostained with anti-RANKL antibody and anti-CD3 antibody.

[4] = tested on: T cells obtained from peripheral blood of the periodontal disease patients; experiment: Differentiation of stimulated T cells into polynuclear giant cells, tissue staining; type: cell-based, human; conditions: stimulation
From the text: T cells obtained from peripheral blood of the periodontal disease patients and healthy subject were stimulated with full-length human Keratin 6 (FL) or peptide 1 (K6F), and differentiation into polynuclear giant cells was observed by tissue staining.

[5] = tested on: T cells obtained from peripheral blood of the periodontal disease patients; experiment: Pit formation assay on dentin section; type: cell-based, human; conditions: stimulation
rats = experiment: Intragingival injection to the lower left jaw of rats; type: in vivo, rat; conditions: for tumentia of lower jaw lymph node (Lt): injected left side, intragingival injection; for alveolar bone destruction: lower jaw of injected rats
Protocol: (§1) PBS, full-length human Keratin 6 (FLK6) or peptide 1 (K6F) was administered by intragingival injection to the lower left jaw of rats. […] The lymphocytes obtained from these rats were stimulated with FLK6 or K6F and cultured. […] In addition, peripheral blood mononuclear leukocytes were obtained from these rats, stimulated with K6F or scramble peptide (Sc), and expression of RANKL and CD3 were examined by FACS analysis. […] Moreover, alveolar bone destruction in these rats was examined.

[6] = tested on: lymphocytes obtained from these rats; experiment: Lymphoblast formation in cultured lymphocytes of injected rats; type: cell-based, rat
Protocol: as §1

[7] = tested on: peripheral blood mononuclear leukocytes; experiment: FACS analysis of RANKL and CD3 in peripheral blood mononuclear leukocytes of injected rats; type: cell-based, rat; conditions: in vitro stimulation of cells of rats injected with FL6 or K6F
Protocol: as §1

gingiva fibroblast (GF) = experiment: Binding of FITC-labeled peptide to various cells, confocal microscope; conditions: gingiva fibroblast compared to other cells
From the text: Various cells were stimulated with FITC-labeled peptide 1 (K6F, P-1), observed under a confocal microscope, and the binding level to K6F was shown by percentage higher than that of the control cell (FIG. 14).

[8] = tested on: MMP-2, MMP-3, MCP-1, IL-6, IL-8 in gingiva fibroblasts; experiment: Cytokine and chemokine expression in stimulated gingiva fibroblasts, Western blot; type: cell-based; conditions: stimulation 2-24 hr
Protocol: (§2) Gingiva fibroblasts were stimulated with peptide 1 (K6F), recombinant Keratin 6 (RK6, Rec-K6) or scramble peptide (Sc) for 2-24 hr, and the expression levels of MMP-2, MMP-3, MCP-1, IL-6, IL-8 were measured by Western blot analysis. […] Then, gingiva fibroblast (GF) and gingival epithelial cell (GEC) were stimulated with peptide 1 (K6F) or scramble peptide (Sc), respectively, for 15 min-2 hr, and phosphorylation of p38 in GF, as well as expression of IκB-α and phosphorylation of p65 NFκB and activation of representative serine/threonine kinase in GEC were examined.

[9] = tested on: p38 MAPK, IκB-α, p65 NFκB in gingiva fibroblast (GF); experiment: p38 MAPK, IκB-α and p65 NFκB signalling in stimulated gingiva fibroblast; type: cell-based; conditions: stimulation 15 min-2 hr
Protocol: as §2, with “as well as expression of IκB-α and phosphorylation of p65 NFκB and activation of representative” left out

[10] = tested on: ERK and Akt in gingival epithelial cell (GEC); experiment: Activation of serine/threonine kinases in stimulated gingival epithelial cell; type: cell-based; conditions: stimulation 15 min-2 hr
Protocol: as §2

[11] = lymphocytes of healthy subject (Non-PD) and periodontitis patients after treatment (Maintenance Phase)
[12] = lymphocytes of untreated periodontitis patients and patients during treatment, K6 2 or 4 μg/ml, K6F 60 or 30 μg/ml
[13] = in vitro stimulation of lymphocytes of injected rats
[14] = lymphocytes of rats injected with the substance

Molecule	DLST positive samples (T cell proliferation induced) / samples tested ([1]; Healthy subject, N=5)	DLST positive samples (T cell proliferation induced) / samples tested ([1]; Periodontitis patients, N=22)	T cell proliferation induction potency in DLST [1]	expression of RANKL in lymphocytes (RANKL in lymphocytes; [11])	expression of RANKL in lymphocytes (RANKL in lymphocytes; [12])	expression of RANKL mRNA [2]	CD positive cells (T cells) that express RANKL [3]	differentiation into polynuclear giant cells [4]	bone resorption pit formation [5]	tumentia of lower jaw lymph node (Lt) (rats)	alveolar bone destruction (rats)	Lymphoblast formation [6, 13]	Lymphoblast formation [6, 14]	expression of RANKL and CD3 [7]	binding level to cells, percentage higher than that of the control cell (gingiva fibroblast (GF))	expression levels of MMP-2, MMP-3, MCP-1, IL-6, IL-8 [8]	phosphorylation (activation) of p38 MAPK ([9]; GF)	degradation of IκB and activation of p65 NFκB [9]	activation of representative serine/threonine kinase [10]
YEELQITAGRHGDDLRNTK (listed as Homo sapiens) [peptide 1]	0/5	3/22	remarkable T cell proliferation induction potency	not expressed	increased expression of RANKL	tended to increase	remarkably increased	remarkable differentiation into polynuclear giant cells	formation of a marked bone resorption pit	tumentia of lower jaw lymph node	alveolar bone destruction was observed	further enhanced lymphoblast formation	Lymphoblast formation was observed	enhanced expression of RANKL and CD3	far higher binding level	remarkably increased expression	induced activation of p38 MAPK	did not induce degradation of IκB and activation of p65 NFκB	induced activation of ERK and Akt
B1	2/5	13/22	remarkable T cell proliferation induction potency	not expressed	increased expression of RANKL	tended to increase	remarkably increased	remarkable differentiation into polynuclear giant cells	formation of a marked bone resorption pit	tumentia of lower jaw lymph node	alveolar bone destruction was observed	further enhanced lymphoblast formation	Lymphoblast formation was observed						
